{
  "source": "ChEMBL document CHEMBL1201862",
  "about": "“PubChem BioAssay data set” (2004)",
  "key": {"Caspase-8": {"target": "Caspase-8 (Homo sapiens, UniProt Q14790)", "sequence (Q14790 217-374 limits assumed)": "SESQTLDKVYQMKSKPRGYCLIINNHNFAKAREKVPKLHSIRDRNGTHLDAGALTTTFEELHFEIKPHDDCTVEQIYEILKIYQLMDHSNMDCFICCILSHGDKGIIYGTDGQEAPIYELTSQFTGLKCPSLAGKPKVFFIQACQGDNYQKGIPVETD", "sequence (Q14790 385-479 limits assumed)": "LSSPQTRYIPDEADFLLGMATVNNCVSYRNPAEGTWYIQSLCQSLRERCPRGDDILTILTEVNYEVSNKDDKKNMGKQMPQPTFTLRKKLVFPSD", "assay": "inhibitors of purified CASP8 protease – biochemical, Z-IETD-R110 fluorescence, cherry-picked samples, selectivity assay for caspase-6 inhibitor project, dose response (AID 743294)"}, "[1]": {"target": "Tyrosine-protein phosphatase non-receptor type 11 (Homo sapiens, UniProt Q06124)", "sequence (Q06124 whole entry)": "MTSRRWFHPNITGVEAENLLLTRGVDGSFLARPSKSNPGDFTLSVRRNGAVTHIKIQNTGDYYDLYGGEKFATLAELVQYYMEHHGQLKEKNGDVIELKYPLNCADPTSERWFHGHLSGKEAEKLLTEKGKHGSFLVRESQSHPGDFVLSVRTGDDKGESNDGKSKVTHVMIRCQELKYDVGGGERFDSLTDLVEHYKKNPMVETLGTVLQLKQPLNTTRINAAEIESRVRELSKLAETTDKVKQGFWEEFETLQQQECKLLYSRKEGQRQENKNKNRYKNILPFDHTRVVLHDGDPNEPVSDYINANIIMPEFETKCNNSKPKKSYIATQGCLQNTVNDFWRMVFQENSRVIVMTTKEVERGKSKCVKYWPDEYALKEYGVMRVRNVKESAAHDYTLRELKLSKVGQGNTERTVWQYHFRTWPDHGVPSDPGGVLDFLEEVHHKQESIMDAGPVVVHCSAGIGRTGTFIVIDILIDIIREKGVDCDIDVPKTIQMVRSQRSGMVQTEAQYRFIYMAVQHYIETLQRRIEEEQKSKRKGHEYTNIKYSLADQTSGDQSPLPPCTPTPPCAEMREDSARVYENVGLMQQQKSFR", "assay": "PTPN11 enzyme inhibitors – biochemical, selectivity assay for STEP inhibitor project, dose response (AID 602367)", "type": "functional", "conditions": "read-out: IC50_Mean"}, "[2]": {"target": "Dual specificity protein phosphatase 3 (Homo sapiens, UniProt P51452)", "sequence (P51452 whole entry)": "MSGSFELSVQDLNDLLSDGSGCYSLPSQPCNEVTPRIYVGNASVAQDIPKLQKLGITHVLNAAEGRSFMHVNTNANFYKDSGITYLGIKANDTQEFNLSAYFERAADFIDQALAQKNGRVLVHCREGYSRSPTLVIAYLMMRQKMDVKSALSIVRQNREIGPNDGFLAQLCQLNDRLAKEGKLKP", "assay": "VHR phosphatase inhibition, dose response, selectivity assay for STEP inhibitor project, biochemical (AID 602374)", "type": "functional", "conditions": "read-out: IC50_Mean"}, "[3]": {"target": "Small ubiquitin-related modifier 1 (Homo sapiens, UniProt P63165)", "sequence (P63165 whole entry)": "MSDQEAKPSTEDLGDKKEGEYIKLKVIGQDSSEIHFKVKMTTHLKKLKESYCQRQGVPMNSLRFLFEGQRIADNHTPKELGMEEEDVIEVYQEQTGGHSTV", "assay": "SUMO1 protein-protein binding blockers, potency – biochemical, FRET, dose response (AID 624383)", "type": "functional", "conditions": "read-out: IC50_Mean"}, "Caspase-6": {"target": "T1, Caspase-6 (Homo sapiens, UniProt P55212)", "T1 sequence (P55212 whole entry)": "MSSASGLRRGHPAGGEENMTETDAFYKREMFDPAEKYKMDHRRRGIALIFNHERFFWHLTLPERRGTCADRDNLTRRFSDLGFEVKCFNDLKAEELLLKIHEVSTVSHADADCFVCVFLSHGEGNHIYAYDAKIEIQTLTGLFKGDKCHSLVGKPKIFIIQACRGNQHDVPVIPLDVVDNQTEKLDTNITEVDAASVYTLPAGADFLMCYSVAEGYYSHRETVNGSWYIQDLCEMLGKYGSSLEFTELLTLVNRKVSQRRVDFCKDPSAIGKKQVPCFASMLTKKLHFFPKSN", "assay": "inhibition of CASP6 peptide cleavage – biochemical, VEID-R110 fluorescence, cherry-pick, dose response (AID 720632)"}, "[4]": {"target": "T2, Tyrosine-protein phosphatase non-receptor type 22 (Homo sapiens, UniProt Q9Y2R2)", "T2 sequence (Q9Y2R2 whole entry)": "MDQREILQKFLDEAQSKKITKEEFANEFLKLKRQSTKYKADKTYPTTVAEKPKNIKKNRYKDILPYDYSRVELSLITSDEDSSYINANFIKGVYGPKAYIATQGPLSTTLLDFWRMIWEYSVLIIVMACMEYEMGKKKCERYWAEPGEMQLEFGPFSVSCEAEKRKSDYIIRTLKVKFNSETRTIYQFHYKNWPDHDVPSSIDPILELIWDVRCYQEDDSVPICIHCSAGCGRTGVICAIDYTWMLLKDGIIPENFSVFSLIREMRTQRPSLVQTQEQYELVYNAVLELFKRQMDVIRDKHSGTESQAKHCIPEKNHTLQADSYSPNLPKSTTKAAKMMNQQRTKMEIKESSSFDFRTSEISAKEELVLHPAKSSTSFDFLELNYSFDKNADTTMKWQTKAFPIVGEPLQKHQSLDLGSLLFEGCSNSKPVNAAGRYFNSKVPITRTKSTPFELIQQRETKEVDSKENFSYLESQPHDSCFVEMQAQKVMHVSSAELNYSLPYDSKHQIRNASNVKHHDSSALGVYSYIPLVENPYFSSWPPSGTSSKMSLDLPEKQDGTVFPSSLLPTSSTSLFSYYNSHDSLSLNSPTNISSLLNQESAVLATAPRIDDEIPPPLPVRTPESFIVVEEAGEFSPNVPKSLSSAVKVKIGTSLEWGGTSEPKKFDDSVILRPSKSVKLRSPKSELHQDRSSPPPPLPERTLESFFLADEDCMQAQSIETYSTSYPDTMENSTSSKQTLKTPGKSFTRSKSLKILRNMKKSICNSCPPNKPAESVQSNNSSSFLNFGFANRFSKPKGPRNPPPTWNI", "assay": "lymphoid phosphatase LYP inhibitors – biochemical, selectivity assay for STEP inhibitor project, dose response (AID 624241)", "type": "functional"}, "CHO": {"test_system": "CHO", "assay": "CHO cell viability loss, potency – luminescence, cytotoxicity control for TLR9-MyD88 binding inhibitor project, dose response (AID 588339);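 note: CHO cells stably coexpressing TLR9 and MyD88 fusions from primary screen; compound exposure lasted 48 hours before viability readout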", "type": "functional, cell-based, hamster", "conditions": "Cricetulus griseus"}, "[5]": {"target": "T3, Replicative DNA helicase DnaB (Mycobacterium tuberculosis, UniProt P9WMR3)", "T3 sequence (P9WMR3 whole entry)": "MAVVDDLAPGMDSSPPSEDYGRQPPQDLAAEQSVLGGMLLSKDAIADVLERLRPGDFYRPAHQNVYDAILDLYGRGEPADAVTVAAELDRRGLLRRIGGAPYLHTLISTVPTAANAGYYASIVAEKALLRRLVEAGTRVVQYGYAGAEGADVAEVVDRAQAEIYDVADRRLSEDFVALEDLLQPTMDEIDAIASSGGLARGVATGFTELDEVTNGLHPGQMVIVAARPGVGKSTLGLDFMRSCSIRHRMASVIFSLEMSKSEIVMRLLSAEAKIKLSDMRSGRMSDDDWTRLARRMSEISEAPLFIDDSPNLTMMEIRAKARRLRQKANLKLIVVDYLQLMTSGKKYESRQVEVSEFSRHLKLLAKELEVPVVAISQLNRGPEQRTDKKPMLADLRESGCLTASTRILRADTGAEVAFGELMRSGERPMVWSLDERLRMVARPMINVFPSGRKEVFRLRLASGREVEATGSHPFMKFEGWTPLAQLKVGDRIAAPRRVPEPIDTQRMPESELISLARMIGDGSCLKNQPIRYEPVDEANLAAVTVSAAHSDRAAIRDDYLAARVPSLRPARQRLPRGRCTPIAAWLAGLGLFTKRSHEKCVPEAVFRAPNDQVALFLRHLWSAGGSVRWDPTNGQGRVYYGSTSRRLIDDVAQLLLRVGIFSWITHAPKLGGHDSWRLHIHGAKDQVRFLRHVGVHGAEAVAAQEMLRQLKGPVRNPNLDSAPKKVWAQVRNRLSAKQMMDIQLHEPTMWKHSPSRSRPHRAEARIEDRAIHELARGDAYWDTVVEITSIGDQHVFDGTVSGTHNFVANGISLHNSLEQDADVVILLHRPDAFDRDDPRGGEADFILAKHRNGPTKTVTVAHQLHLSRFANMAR", "assay": "DnaB intein splicing inhibitors, dose response, biochemical, cell-free fluorescence (AID 449749)", "type": "functional"}, "[6]": {"target": "T4, Kappa-type opioid receptor (Homo sapiens, UniProt P41145)", "T4 sequence (P41145 whole entry)": "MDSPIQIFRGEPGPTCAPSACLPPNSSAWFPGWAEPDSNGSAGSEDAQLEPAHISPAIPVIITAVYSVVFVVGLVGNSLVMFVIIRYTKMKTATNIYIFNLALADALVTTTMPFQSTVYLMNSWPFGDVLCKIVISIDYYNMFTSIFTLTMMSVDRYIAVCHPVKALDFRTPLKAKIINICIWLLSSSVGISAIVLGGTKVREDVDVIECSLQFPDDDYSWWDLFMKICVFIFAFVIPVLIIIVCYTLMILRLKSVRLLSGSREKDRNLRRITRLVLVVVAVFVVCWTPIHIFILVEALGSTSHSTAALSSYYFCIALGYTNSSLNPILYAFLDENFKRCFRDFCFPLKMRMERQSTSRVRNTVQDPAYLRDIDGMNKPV", "type": "functional"}, "Mu-type opioid receptor": {"target": "Mu-type opioid receptor (Homo sapiens, UniProt P35372)", "sequence (P35372 whole entry)": "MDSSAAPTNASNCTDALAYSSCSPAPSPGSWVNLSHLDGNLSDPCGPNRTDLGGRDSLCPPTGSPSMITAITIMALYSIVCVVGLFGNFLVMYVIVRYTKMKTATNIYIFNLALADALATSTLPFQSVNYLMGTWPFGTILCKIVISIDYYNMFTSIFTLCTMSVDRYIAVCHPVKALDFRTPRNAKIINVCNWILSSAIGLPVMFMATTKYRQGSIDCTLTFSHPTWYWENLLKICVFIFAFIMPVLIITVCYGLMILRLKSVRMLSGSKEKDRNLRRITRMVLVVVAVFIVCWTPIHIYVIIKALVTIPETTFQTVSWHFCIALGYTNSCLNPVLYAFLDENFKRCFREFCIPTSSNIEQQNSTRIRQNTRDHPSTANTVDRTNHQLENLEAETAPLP", "assay": "HTS Image-Based Screen for Agonists of the MOR Receptor. [Related pubchem assays (depositor defined):AID1777, AID1785, AID1786, AID2133]", "type": "functional"}, "[7]": {"target": "Delta-type opioid receptor (Homo sapiens, UniProt P41143)", "sequence (P41143 whole entry)": "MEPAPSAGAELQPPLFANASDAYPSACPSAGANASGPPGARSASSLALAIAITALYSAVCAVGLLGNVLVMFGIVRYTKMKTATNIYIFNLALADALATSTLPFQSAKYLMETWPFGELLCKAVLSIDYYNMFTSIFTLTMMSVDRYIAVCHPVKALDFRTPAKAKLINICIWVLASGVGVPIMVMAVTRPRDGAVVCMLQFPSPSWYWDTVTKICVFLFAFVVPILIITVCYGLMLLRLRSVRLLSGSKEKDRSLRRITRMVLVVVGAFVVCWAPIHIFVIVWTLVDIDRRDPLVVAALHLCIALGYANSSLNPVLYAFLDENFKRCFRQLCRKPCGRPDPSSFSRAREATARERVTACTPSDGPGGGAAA", "assay": "HTS Image-Based Screen for Antagonists of the DOR Receptor. [Related pubchem assays (depositor defined):AID1777, AID1785, AID1786, AID2133]", "type": "functional"}, "[8]": {"target": "T4, Kappa-type opioid receptor", "type": "functional", "remark": "listed apart in the source"}, "Fatty acid synthase": {"target": "Fatty acid synthase (Homo sapiens, UniProt P49327)", "sequence (P49327 whole entry)": "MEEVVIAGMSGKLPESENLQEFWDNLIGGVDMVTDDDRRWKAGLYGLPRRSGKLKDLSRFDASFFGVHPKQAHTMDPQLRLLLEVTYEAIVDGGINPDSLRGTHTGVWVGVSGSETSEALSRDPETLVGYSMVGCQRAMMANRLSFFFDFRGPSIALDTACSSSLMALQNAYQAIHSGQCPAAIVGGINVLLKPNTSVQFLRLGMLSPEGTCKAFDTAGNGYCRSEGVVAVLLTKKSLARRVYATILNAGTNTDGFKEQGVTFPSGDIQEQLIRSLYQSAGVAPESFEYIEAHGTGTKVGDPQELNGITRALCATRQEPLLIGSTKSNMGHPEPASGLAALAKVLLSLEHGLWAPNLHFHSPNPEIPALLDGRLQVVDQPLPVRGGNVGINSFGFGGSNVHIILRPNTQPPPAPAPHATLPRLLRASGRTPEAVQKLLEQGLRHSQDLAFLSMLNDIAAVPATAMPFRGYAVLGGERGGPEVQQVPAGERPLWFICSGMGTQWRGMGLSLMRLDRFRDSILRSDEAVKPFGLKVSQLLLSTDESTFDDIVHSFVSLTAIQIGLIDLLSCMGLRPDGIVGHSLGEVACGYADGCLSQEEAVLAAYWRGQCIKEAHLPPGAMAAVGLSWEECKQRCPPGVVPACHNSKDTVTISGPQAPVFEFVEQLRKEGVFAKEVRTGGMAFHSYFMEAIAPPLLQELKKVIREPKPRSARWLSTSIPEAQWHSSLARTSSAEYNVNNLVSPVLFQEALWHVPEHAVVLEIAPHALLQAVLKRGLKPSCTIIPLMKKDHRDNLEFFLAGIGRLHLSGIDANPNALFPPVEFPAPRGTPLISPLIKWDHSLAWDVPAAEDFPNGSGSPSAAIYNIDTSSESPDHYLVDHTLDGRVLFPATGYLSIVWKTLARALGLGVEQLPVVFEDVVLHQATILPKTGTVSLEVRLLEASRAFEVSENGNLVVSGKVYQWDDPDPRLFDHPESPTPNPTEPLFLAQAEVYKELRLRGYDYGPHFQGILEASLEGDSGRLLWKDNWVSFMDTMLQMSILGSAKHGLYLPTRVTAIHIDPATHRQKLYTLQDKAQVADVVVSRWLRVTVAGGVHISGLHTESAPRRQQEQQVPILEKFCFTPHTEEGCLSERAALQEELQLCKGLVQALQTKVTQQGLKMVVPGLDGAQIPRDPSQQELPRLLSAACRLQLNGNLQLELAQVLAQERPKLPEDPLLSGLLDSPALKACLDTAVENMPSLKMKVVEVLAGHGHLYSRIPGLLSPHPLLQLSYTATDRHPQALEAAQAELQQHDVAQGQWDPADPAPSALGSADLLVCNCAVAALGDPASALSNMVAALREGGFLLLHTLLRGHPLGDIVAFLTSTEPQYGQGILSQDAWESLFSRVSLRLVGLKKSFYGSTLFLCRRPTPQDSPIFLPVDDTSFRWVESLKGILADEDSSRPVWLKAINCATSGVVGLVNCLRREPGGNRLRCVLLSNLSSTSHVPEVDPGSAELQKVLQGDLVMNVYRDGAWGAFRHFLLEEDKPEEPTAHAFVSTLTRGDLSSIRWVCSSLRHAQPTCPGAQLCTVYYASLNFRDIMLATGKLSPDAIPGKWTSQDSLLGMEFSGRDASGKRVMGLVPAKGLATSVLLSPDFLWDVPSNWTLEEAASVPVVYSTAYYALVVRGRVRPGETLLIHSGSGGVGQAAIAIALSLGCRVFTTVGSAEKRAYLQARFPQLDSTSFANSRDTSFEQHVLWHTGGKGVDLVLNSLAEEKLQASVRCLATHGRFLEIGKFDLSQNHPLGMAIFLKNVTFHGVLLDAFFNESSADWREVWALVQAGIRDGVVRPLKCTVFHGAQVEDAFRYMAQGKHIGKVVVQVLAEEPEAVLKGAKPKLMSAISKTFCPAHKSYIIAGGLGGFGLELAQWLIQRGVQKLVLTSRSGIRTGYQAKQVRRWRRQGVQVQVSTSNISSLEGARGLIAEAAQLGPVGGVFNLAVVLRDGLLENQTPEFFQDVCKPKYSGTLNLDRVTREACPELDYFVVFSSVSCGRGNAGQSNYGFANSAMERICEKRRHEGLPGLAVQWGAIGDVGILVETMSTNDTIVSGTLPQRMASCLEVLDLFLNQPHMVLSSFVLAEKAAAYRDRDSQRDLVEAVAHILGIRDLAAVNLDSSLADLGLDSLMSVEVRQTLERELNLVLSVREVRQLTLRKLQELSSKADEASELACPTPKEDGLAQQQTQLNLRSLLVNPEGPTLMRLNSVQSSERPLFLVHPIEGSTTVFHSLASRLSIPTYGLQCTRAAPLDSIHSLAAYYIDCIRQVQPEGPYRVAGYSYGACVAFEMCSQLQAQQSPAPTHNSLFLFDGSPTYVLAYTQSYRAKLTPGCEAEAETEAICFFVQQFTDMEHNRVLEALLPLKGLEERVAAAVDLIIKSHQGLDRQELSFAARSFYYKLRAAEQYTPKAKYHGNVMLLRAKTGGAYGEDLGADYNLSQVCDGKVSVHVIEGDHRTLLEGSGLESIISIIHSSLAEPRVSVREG", "assay": "inhibition of human FAS-TE enzyme activity – biochemical, kinetic fluorescence intensity, dose response (AID 624326);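 note: rate of fluorescence rise from hydrolysis of a fluorogenic O-methyl fluorescein ester substrate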", "type": "functional"}},
  "note": "Calls of active or inactive are those of the source.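 Throughout, for EC50: imaging of beta-arrestin GFP recruitment into spots after receptor activation.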",
  "data": [
    {"molecule": "O=S(=O)(O)c1cc(O)c2cc(Nc3ccccc3)ccc2c1", "values": [
      {"measurement": "AC50", "setting": "Caspase-8", "value": "> 70 µM (inactive)"},
      {"measurement": "IC50", "setting": "[1]", "value": "335 nM (active)"},
      {"measurement": "IC50", "setting": "[2]", "value": "485 nM (active)"},
      {"measurement": "IC50", "setting": "[3]", "value": "4.47 µM (active)"},
      {"measurement": "AC50", "setting": "Caspase-6", "value": "403 nM (active)"},
      {"measurement": "IC50", "setting": "[4]", "value": "5.09 µM (active)"}
    ]},
    {"molecule": "O=[N+]([O-])c1c(Nc2ccccc2O)cc(Cl)c2nonc12", "values": [
      {"measurement": "IC50", "setting": "CHO", "value": "1.36 µM (active)"},
      {"measurement": "AC50", "setting": "[5]", "value": "2.19 µM (active)"},
      {"measurement": "IC50", "setting": "[6]", "value": 11.5, "unit": "µM"},
      {"measurement": "EC50", "setting": "Mu-type opioid receptor", "value": "> 32 µM (inactive)"},
      {"measurement": "IC50", "setting": "[7]", "value": "14.7 µM (inactive)"},
      {"measurement": "IC50", "setting": "[8]", "value": "2.89 µM (active)"},
      {"measurement": "IC50", "setting": "Fatty acid synthase", "value": "7.45 µM (active)"}
    ]}
  ]
}
